How the values were obtained:
Experiment in all cases: MIC assay (Experiments II)
Format in all cases: cell-based
[1] = system: Streptococcus pneumonia ATCC 49619; details: Streptococcus pneumoniae, ATCC49619; S. pneumonia ATCC 49619; 24 hours; read-out: Minimal inhibitory concentration
Method: (§1) A test sample of water containing water clusters at a concentration of approximately 150 million water clusters per drop of water, with an average water droplet size of 500 microns in diameter, was stored at room temperature until required. The sample of water was prepared according to the methods described in S. Y. Lo et al., Evidence for the existence of stable-water-clusters at room temperature and normal pressure. Physics Letters A (2009)). Linezolid diluted in dimethyl sulfoxide was used as a control.
(§2) The test sample of water containing water clusters was added to the first well of a 96-well plate. 2-fold dilutions were performed into all of the wells of that row containing cation-adjusted Mueller-Hinton Broth (CA-MHB) with 5% lysed horse blood except for the last well, which was used as a control without any testing agent. This was repeated in Brain Heart Infusion (BHI) broth. The Linezolid control followed a similar protocol but was diluted to 8 μg/mL in the first well, followed by 2-fold serial dilutions into both CA-MHB with 5% lysed horse blood and BHI broth.
(§3) Streptococcus mutans ATCC 31341, Streptococcus pneumonia ATCC 49619, and Streptococcus pyogenes ATCC 51339 were obtained from the American Type Culture Collection (Manassas, Va.). All strains were maintained as frozen glycerol stocks at −80° C. Working stocks were prepared by streaking bacteria onto Sheep Blood Agar plates, growing at 37° C. with 5% CO2 for 24 hours and suspending isolated colonies in 3 mL of 0.9% sterile saline to approximately 1×10^8 CFU/mL.
(§4) Bacterial working stocks were diluted into appropriate liquid media for a final inocula of about 5×10^6 CFU/mL. CA-MHB with 5% lysed horse blood was used for all the Streptococcus spp. While BHI broth was also used for S. mutans. 10 μL of stock suspension was added to each well of a 96-well MIC plate treated with the test sample of water containing water clusters. […] The plates were incubated at 35° C. with 5% CO2 for a full 24 hours before reading.

[2] = system: Streptococcus mutans ATCC 31341; details: ATCC31341, S. mutans ATCC 31341, 24 hours, read-out: Minimal inhibitory concentration
Method: as §1, §2, §3, §4

[3] = system: Streptococcus pyogenes ATCC 51339; details: ATCC51339, S. pyogenes ATCC 51339, 24 hours, read-out: Minimal inhibitory concentration
Method: as §1, §2, §3, §4

Measured: MIC

CC(=O)NC[C@H]1CN(c2ccc(N3CCOCC3)c(F)c2)C(=O)O1 [Linezolid]
1 µg/mL: all assays above
